This passage reports IC50, EC50 and AC50 results from ChEMBL document CHEMBL1201862, “PubChem BioAssay data set” (2004).

Assay [1] addresses T1, Fatty acid synthase (Homo sapiens, UniProt P49327). The assay can be described thus: FAS thioesterase domain inhibitors, dose response, biochemical, endpoint fluorescence intensity, uHTS hits (AID 624327).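 Further: fluorescence from hydrolysis of an O-methyl fluorescein acyl ester substrate by the enzyme.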 It counts as functional.
Assay [2] addresses T1, Fatty acid synthase. Put plainly: FAS thioesterase domain inhibitors, dose response, biochemical, kinetic fluorescence intensity (AID 624326).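 Further: rate of fluorescence rise from hydrolysis of a fluorogenic O-methyl fluorescein ester substrate.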 The class given is functional.
Assay [3] is described as follows: Luminescence Cell-Based Dose Response HTS to Identify Activators of Luciferase Translation or Activity in H4 […] Cells. [Related pubchem assays: 1829 (Project Summary), 1814 (Primary HTS)]. The class given is functional.
Assay [4] is described as follows: Luminescence Cell-Based Dose Confirmation HTS to Identify Activators of 5'UTR Stem-Loop Driven Alpha-Synuclein mRNA Translation in H4 Neuroglioblastoma Cells. [Related pubchem assays: 1829 (Project Summary), 1814 (Primary HTS)]. The class given is functional.
The test system of assay [5] is H4. Put plainly: Luminescence Cell-Based Dose Response HTS to Identify Activators of 5'UTR Stem-Loop Driven Prion Protein mRNA Translation in H4 Neuroglioblastoma Cells. [Related pubchem assays: 1829 (Project Summary), 1814 (Primary HTS)]. The class given is functional. Conditions: Homo sapiens.
Assay [6] concerns the target Cytochrome P450 2C19 (Homo sapiens, UniProt P33261). Put plainly: Cytochrome panel assay with activity outcomes. Panel member name: p450-cyp2c19 Compounds with AC50 equal or less than 10 uM are considered active. It counts as functional. The following applies: read-out: AC50.
Assay [7] concerns the target T2, Cytochrome P450 1A2 (Homo sapiens, UniProt P05177).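 Further: PubChem cytochrome P450 panel assay, CYP1A2 panel member.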
T2 sequence (P05177 whole entry): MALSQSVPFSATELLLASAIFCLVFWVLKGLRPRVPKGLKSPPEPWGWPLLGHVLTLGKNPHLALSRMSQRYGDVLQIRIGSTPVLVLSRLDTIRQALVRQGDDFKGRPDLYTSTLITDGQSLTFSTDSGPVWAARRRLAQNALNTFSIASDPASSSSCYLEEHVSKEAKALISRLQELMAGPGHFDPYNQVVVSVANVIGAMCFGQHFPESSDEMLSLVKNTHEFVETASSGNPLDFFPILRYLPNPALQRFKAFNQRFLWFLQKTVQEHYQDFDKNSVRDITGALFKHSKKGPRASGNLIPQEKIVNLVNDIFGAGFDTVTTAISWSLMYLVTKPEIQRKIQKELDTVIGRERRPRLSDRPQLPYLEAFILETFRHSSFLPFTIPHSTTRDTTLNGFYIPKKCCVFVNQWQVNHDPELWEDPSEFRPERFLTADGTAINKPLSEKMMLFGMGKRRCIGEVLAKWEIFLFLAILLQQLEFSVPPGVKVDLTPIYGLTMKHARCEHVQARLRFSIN

In assay [8] the test system is H9c2. The assay can be described thus: cells. The class given is functional, cell-based. The following applies: Rattus norvegicus, H9c2, Myocardium.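 Further: confirmatory concentration-response retest of ultra-high-throughput screening hits for modulation of myocardial damage; cell death induced by hydrogen peroxide oxidative stress; compound pretreatment for 60 min then peroxide exposure for 2 h; potency is for protecting the cells against peroxide damage rather than for killing them.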
The target in assay [9] is T3, Polyadenylate-binding protein 1 (Homo sapiens, UniProt P11940). The assay can be described thus: PABP1 MLLE–PAM2 binding inhibitor potency, dose response, biochemical, fluorescence polarization, FITC-PAM2 peptide (AID 602259). It counts as functional. The following applies: read-out: IC50_Mean. Background: In fluorescence polarisation assays a small probe gives low polarisation when free and higher when bound to something large.

The target of assay [10] is T3, Polyadenylate-binding protein 1. The assay can be described thus: PABP1 MLLE–PAM2 interaction inhibitors, dose response, miRNA deadenylation inhibitor project, biochemical, fluorescence polarization, Cy5-PAM2 peptide, secondary (AID 602260). It counts as functional. The following applies: read-out: IC50_Mean.
Assay [11] relates to Streptococcus sp. 'group A'. The assay can be described thus: growth inhibition of control SK(-) GAS strain, dose response, counter-screen for streptokinase expression inhibitor project, luminescence, kanamycin, BacTiterGlo, confirmation (AID 1900). The class given is functional, organism-based.
In assay [12] the test system is Streptococcus. The assay can be described thus: Group A Streptococcus viability loss, dose response, counter-screen for streptokinase expression inhibitor project, luminescence, BacTiterGlo (AID 1915).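 Further: potency for reduction of bacterial viability or growth.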 The class given is functional, organism-based. (Counterscreens check selectivity or assay interference.)
Assay [13] concerns the target T4, Streptokinase A (Streptococcus pyogenes serotype M1, UniProt P10520).
T4 sequence (P10520 whole entry): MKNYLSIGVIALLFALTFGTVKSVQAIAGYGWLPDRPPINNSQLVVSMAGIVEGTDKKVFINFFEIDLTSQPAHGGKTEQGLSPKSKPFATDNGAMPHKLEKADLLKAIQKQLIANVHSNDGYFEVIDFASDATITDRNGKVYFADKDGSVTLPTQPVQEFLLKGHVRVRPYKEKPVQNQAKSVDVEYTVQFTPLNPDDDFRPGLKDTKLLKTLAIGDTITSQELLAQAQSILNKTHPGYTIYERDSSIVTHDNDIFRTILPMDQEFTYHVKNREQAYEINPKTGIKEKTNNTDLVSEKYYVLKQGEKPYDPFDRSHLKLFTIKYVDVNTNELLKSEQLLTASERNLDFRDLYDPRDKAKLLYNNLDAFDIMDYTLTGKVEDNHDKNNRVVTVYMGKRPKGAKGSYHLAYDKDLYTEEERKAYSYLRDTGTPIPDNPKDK
Put plainly: S. pyogenes streptokinase expression inhibitors, potency, dose response, plasminogen activation absorbance, OD405 (AID 1914).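 Further: secreted streptokinase activity via plasminogen activation per viability signal from cell pellet.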 It counts as functional, Streptococcus pyogenes M1 GAS.

SMILES strings stand for the structures. Calls of active or inactive are those of the source.

T1 sequence (P49327 whole entry, the tested form may be a part): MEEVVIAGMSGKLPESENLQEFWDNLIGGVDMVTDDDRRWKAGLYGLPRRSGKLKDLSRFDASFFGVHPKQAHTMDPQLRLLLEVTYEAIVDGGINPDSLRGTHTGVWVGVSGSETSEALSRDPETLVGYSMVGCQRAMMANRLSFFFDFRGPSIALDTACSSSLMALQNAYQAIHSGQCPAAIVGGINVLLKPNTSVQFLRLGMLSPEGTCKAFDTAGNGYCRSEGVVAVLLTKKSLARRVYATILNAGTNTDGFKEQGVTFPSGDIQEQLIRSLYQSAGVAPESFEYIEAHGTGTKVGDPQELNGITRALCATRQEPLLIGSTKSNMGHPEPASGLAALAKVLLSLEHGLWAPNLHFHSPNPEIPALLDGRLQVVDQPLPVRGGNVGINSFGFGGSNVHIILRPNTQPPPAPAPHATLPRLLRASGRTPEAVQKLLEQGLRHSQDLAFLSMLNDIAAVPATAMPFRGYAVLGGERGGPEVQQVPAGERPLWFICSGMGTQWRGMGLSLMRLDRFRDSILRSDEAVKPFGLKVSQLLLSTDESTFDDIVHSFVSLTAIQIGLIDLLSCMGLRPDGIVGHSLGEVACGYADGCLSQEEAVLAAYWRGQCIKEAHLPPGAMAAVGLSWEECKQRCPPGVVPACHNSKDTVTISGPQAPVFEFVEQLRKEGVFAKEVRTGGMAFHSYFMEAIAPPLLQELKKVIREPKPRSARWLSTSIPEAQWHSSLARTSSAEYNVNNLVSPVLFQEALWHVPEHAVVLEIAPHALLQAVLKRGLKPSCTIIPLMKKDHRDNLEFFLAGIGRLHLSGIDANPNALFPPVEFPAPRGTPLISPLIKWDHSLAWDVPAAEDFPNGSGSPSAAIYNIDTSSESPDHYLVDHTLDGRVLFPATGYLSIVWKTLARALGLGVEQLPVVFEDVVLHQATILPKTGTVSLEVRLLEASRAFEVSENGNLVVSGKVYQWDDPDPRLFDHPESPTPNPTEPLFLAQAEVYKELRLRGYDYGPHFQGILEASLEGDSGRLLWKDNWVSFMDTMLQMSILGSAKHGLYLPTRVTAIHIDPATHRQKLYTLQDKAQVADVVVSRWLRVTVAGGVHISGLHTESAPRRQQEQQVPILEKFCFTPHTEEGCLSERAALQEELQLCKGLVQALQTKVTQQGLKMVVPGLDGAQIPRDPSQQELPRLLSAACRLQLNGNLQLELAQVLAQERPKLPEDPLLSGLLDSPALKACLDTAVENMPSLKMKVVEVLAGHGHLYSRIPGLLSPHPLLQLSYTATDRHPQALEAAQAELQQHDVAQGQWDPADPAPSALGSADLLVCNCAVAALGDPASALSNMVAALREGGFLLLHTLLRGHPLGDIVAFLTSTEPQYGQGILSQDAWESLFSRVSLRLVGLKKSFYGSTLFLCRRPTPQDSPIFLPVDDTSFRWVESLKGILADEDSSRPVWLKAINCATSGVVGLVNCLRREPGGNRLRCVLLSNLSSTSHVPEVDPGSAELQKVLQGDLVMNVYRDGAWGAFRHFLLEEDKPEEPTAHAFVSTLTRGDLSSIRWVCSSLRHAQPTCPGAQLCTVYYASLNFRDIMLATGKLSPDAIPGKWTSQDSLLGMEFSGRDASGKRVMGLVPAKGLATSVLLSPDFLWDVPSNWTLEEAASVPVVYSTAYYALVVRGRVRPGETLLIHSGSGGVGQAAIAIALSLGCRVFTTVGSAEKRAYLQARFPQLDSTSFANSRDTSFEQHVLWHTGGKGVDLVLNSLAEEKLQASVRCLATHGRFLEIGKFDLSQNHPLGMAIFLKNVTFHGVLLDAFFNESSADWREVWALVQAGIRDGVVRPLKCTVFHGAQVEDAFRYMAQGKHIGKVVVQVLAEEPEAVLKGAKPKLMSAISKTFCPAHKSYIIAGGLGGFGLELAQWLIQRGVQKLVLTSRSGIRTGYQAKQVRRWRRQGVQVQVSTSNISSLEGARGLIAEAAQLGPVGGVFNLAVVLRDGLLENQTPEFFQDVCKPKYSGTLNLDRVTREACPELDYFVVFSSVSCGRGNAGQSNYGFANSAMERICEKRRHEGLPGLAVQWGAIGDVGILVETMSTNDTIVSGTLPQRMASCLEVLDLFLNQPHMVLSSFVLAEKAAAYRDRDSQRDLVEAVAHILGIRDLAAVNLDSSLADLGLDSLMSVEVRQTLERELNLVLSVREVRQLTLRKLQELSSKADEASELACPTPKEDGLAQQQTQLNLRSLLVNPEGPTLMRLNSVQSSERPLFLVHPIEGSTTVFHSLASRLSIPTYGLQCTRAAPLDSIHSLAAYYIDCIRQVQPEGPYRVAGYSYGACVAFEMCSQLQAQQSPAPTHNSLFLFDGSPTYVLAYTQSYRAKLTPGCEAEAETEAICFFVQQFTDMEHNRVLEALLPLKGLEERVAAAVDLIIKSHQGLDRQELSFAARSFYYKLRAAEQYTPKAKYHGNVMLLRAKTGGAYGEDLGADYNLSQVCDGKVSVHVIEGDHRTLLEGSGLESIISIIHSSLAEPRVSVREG
T3 sequence (P11940 whole entry): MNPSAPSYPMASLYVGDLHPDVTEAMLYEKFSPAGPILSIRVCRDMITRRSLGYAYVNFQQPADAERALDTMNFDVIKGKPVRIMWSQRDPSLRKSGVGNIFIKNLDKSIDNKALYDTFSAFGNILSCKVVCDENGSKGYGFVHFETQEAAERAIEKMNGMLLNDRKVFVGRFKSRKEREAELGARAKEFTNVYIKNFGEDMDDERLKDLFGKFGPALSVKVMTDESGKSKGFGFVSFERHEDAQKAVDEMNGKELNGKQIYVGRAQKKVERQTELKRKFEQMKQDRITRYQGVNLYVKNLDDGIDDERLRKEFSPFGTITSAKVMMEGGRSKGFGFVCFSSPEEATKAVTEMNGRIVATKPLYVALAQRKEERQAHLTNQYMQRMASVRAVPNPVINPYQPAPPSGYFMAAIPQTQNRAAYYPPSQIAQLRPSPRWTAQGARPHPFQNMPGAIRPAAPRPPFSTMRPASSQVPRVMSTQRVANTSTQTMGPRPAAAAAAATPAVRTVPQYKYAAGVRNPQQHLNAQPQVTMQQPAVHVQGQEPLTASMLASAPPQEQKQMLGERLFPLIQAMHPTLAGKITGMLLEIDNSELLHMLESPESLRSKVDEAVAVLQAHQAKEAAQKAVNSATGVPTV
Cytochrome P450 2C19, sequence (P33261 whole entry): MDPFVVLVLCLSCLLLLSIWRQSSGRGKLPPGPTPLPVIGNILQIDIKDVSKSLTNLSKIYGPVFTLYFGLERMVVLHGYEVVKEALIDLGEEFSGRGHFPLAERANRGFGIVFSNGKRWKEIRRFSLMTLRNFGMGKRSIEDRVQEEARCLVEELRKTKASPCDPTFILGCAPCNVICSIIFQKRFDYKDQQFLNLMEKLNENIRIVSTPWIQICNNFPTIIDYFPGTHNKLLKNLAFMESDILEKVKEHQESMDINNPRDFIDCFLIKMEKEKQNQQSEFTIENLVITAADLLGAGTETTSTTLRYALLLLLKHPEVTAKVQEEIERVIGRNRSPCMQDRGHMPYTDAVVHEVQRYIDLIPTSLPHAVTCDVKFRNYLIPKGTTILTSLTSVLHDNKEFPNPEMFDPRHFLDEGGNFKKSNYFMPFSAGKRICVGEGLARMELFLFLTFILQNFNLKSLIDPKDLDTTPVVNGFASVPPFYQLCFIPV

In the case of `NC(=NOC(=O)CCC1CCCCC1)c1cccc([N+](=O)[O-])c1`, the IC50 in assay [1] is 6.09 µM (active); in [2], 6 µM (active).

A word on the EC50: it is the concentration giving half of the maximal effect. As for `O=C1c2ccccc2NC(c2ccccc2O)N1NS(=O)(=O)c1ccccc1` (stereo unspecified), the values for the EC50 in assay [3], in assay [4] and in assay [5] were > 60 µM (not active), > 120 µM (not active) and > 120 µM (not active), respectively.

Usually AC50 stands for the concentration giving half of the maximal activity seen. Take `C(/C=C/c1ccco1)=N/N1CCN(c2ccccc2)CC1`: the EC50 is 17.5 µM (active) in [3] and 2.21 µM (active) in assay [4]. For the same compound, the half-maximal activity concentration (AC50) is 2 µM (inconclusive) in assay [6] and 8.91 µM (inconclusive) in assay [7].

Turning to `O=C(COc1cccc2c1CCNC2=O)Nc1ccc(F)cc1`, in assay [8], the IC50 is 37.2 µM (inactive).

On to `CSc1ccc(CC(=O)N2CCC(n3nccc3NC(=O)C3CC3)CC2)cc1`, for which the results for the EC50 in assay [3], in [4] and in assay [5] were 4.85 µM (active), 15.2 µM (active) and > 120 µM (not active), respectively.

For the compound `O=C(CSc1ncnc2c1cnn2-c1ccccc1)NC1CCS(=O)(=O)C1` (stereo unspecified), the IC50 is 7.65 µM (active) in assay [1] and 9.44 µM (active) in assay [2].

Turning to `CC1(C(=O)NC(=S)N(CCC#N)c2ccccc2)CC1(Cl)Cl` (stereo unspecified), the IC50 in [9] and in assay [10] was > 66 µM (inactive) in each case.

For `Cc1cccc(NC(=O)CNC(=O)COC(=O)c2ccc(C(C)(C)C)cc2)c1C`, the IC50 in [1] is 14.6 µM (active); in assay [2], 20.7 µM (inactive).

As to `CN(C)CCCNC(=O)CC1C[C@H](C(=O)N2CCOCC2)[C@@]2(CCC3CCCC3)c3[nH]c4ccccc4c3CCN2C1=O` (stereo partly specified), the figures for the IC50 in [1] and in assay [2] were 2.12 µM (active) and 4.82 µM (active), respectively.

For `CC(OC(=O)Cn1[nH]c(=O)c2ccccc2c1=O)C(=O)NC1(C#N)CCCCC1` (stereo unspecified), the IC50 in [8] is > 79 µM (inactive).

Regarding `CN(C(=O)CSc1nncc2ccccc12)C1CCCCC1`, the EC50 in assay [3] was 14.1 µM (active); in [4], 10.5 µM (active); in assay [5] it was 13.1 µM (active).

Turning to `Brc1ccc(-c2ccc(/C=N/Nc3nc(N4CCOCC4)nc(N4CCOCC4)n3)o2)cc1`, in assay [8], the IC50 was > 79 µM (inactive).

As for `O=C(Cc1cccc(C(F)(F)F)c1)OCN1C(=O)c2ccccc2C1=O`, the IC50 in assay [1] was 16.8 µM (active); in assay [2] it was 11.6 µM (active).

As for `COCCOC(=O)C1=C(C)NC(=O)NC1c1c(Cl)nc2ccccn2c1=O` (stereo unspecified), the IC50 in assay [9] and in [10] was > 66 µM (inactive) throughout.

For the compound `CCOC(=O)C1=C(CSc2nc(-c3ccccc3)ccc2C#N)OC(N)=C(C#N)C1c1ccc(OC)cc1` (stereo unspecified), the EC50 in assay [3] is 16.8 µM (active); in assay [4], 12.3 µM (active); in [5], 13.3 µM (active).

For `Cc1cc(C)nc(SCNC(=O)c2ccc(Cl)cc2)n1`, the IC50 in assay [9] and in [10] was > 66 µM (inactive) throughout.

As to `O=C(CC1C[C@H](C(=O)N2CCOCC2)[C@@]2(CCC3CCCC3)c3[nH]c4ccccc4c3CCN2C1=O)NCc1ccco1` (stereo partly specified), the IC50 in assay [1] was 1.25 µM (active); in assay [2], 0.778 µM (active).

For the compound `CC(=O)Nc1ccc(NC(=S)NC(=O)c2ccc([N+](=O)[O-])cc2)cc1`, the IC50 in [9] and in assay [10] was > 66 µM (inactive) throughout.

Regarding `CCOc1ccc2[nH]c(SCC(=O)OC)c([N+](=O)[O-])c2c1`, the IC50 in [9] is 41 µM (inactive); in assay [10], > 66 µM (inactive).

For the compound `COc1ccc(OC)c(S(=O)(=O)N2CCCCC2C(=O)N2CCN(c3ccccn3)CC2)c1` (stereo unspecified), the IC50 in [9] and in [10] was > 66 µM (inactive) in each case.

Turning to `O=c1c2ccccc2oc2nc(-c3ccco3)n(Cc3ccccc3)c(=O)c12`, in assay [8], the IC50 was > 79 µM (inactive).

As for `Cc1ccc(-c2csc(N3CCC[C@@H]3C(=O)NCCn3c(-c4ccncc4)nc4ccccc43)n2)cc1`, the IC50 in [8] is > 79 µM (inactive).

As to `COc1ccc(/C=N/Nc2nc(Nc3ccccc3)nc(N3CCCCC3)n2)cc1OC`, the EC50 in assay [3] is 8.28 µM (active); in assay [4], 9.49 µM (active); in [11], 16.1 µM (active); in assay [12], 46.3 µM (active); in assay [13] it was > 150 µM (not active); in assay [5] it was 23.1 µM (active).

With `O=C(Nc1ccccc1N1CCCC1)c1cc2ccccc2o1`, the results for the EC50 in assay [3], in assay [4] and in assay [5] were 5.42 µM (active), 6.1 µM (active) and 56.5 µM (active), respectively. Besides, the IC50 in assay [9] and in assay [10] was > 66 µM (inactive) throughout.

Regarding `COc1cccc(C2C(C#N)=C(N)OC(C(C)(C)C)=C2C#N)c1` (stereo unspecified), the EC50 in [3], in [4] and in assay [5] was > 120 µM (not active) in each case.

Consider `O=C(NC1CCCCC1)N(c1ccccc1)c1nnc(-c2cccc([N+](=O)[O-])c2)s1`, for which the IC50 in assay [1] was 6.12 µM (active); in assay [2], 7.21 µM (active).

For `COc1ccccc1NS(=O)(=O)c1cc(NC(=O)Cc2nnc(O)c3ccccc23)ccc1Cl`, the IC50 in assay [8] was 20 µM (active).

On to `CCCN1C(=O)/C(=C/c2nc(O)c3ccccc3n2)c2ccccc21`, for which the IC50 in assay [8] is > 79 µM (inactive).

As for `CCOc1ccc(N/C(S)=N/CCCn2ccnc2)cc1`, the EC50 in [3], in assay [4] and in [5] was > 120 µM (not active) each time.

Take `O=C(NC1CCCCCC1)C(=S)N1CCOCC1`: the IC50 in assay [9] and in assay [10] was > 66 µM (inactive) throughout.

In the case of `O=C(NCC(=O)N(Cc1cccs1)C(C(=O)NC1CCCC1)c1ccco1)c1cccs1` (stereo unspecified), in assay [8], the IC50 is > 79 µM (inactive).

As for `Cc1nc2c(cc(Oc3ccc(S(=O)(=O)N4CCOCC4)cn3)c3ccsc32)s1`, the half-maximal effective concentration (EC50) in assay [3] is 15.5 µM (active); in assay [4] it was 10.2 µM (active); in assay [5], > 120 µM (not active).

For `COc1ccc(-c2nnc(SCC(=O)Nc3ncc(C(F)(F)F)cc3Cl)n2CC(C)C)cc1`, the IC50 in assay [1] was 2.11 µM (active); in assay [2], 3.55 µM (active).

On to `CCN(CC)S(=O)(=O)c1ccc(-n2cnc3cc(C)c(C)cc32)nc1`, for which the values for the IC50 in assay [1] and in assay [2] were 11.4 µM (active) and 12.8 µM (active), respectively.

Regarding `COc1cc(-c2cc(NC(C)=O)c3ncc(-c4ccccc4)n3c2)cc(OC)c1OC`, the IC50 in [8] was > 79 µM (inactive).

As to `Cc1nn(C)cc1C(C(=O)NC1CCCCC1)N(C(=O)Cc1cccs1)c1ccc(C(C)C)cc1` (stereo unspecified), the IC50 was 8.86 µM (active) in [1] and 4.06 µM (active) in assay [2].

In the case of `COC(=O)c1cc(C(=O)OCC(=O)c2ccc3c(c2)NC(=O)CO3)cc([N+](=O)[O-])c1`, the IC50 in [1] was 13.6 µM (active); in assay [2], 30.9 µM (inactive).
